What is called pKi is the negative decadic logarithm of the Ki, by convention in mol/L. Low values mean a large Ki, high ones a small Ki.

pKi: −log10 of the molar value.

Consider 1 substance from publication PMC3849131, “^18 F-click labeling and preclinical evaluation of a new ^18 F-folate for PET imaging” (EJNMMI Research, 2013).

One series deals with T1, folate receptor (Homo sapiens, UniProt P15328).
T1 construct: using [^3H]folic acid and human KB cells in cell suspension; endogenous in cells; host or cells: human KB cells
As to the kind of experiment: Displacement assay with [^3H]folic acid on FR-positive human KB cells. It counts as binding. The conditions noted are these: Cheng-Prusoff equation, assuming Kd of [^3H]folic acid 1 nM. The protocol: FR-positive human KB cells were kept under folate-deficient conditions to adjust the folate concentration levels to that of the human serum.
Figure 1 Displacement assay. […] Experiments were conducted in triplicate (n = 3).

The nature of series [1]: In vitro metabolite/stability study in fetal calf serum. It counts as in vitro ADME. Conditions: FCS, 37°C, 15, 30, 60 and 90 min. The protocol:
A solution of [^18 F]12 (50 μL, approximately 5 MBq) was incubated with 500 μL of fetal calf serum (FCS) at 37°C and the mixture shaken at 900 rpm. The time points were set between 0 and 90 min using 500 μL of FCS and 50 μL of the radiotracer for each time point. Plasma proteins were precipitated by addition of cold acetonitrile (300 μL), followed by centrifugation (10,000 rpm, 10 min). An aliquot of each time point (15, 30, 60, and 90 min, 100 μL) was injected into the analytical radio-HPLC system for analytics.
The stability of the new radiotracer, [^18 F]12, was evaluated in the presence of FCS. For this purpose, [^18 F]12 was added to FCS and incubated at 37°C. At certain time points (15, 30, 60, and 90 min), aliquots were extracted and proteins removed by precipitation. The integrity of the radiotracer was determined by analytical radio-HPLC.

For a further series, the system named is KB tumor-bearing mice. As to the kind of experiment: In vivo μPET imaging of KB tumor-bearing mice. Conditions: scan 60 to 90 min p.i., approximately 13 MBq. The protocol: All animal experiments were approved by the local veterinary department and complied with Swiss and local laws on animal protection. Female CD-1 nude mice (Charles River, Sulzfeld, Germany) were fed with a folate-deficient rodent diet (Harlan Laboratories, Indianapolis, IN, USA). After an acclimatization period of 5 to 7 days, human KB tumor cells (5 × 10^6 cells in 0.1 mL sterile phosphate-buffered saline (PBS)) were inoculated subcutaneously on both shoulders of each mouse. Twelve days later, the animals were intravenously injected with [^18 F]12 (approximately 5 MBq, 100 μL). […] Animals were euthanized at the indicated time points, and selected organs and tissues were collected, weighed, and measured in a γ-counter. The incorporated radioactivity was expressed as percentage injected dose per gram (%ID/g) of tissue. PET/computed tomography (CT) experiments were performed with a dedicated small-animal PET/CT scanner (eXplore Vista PET/CT, Sedecal, Algete, Spain/GE Healthcare). Animals were intravenously injected with [^18 F]12 (approximately 13 MBq, 100 μL). For scanning, mice were anesthetized with isoflurane in an air/oxygen mixture. The PET scans were acquired from 60 to 90 min post-injection (p.i.) followed by a CT. After acquisition, PET data were reconstructed in user-defined time frames, and the fused datasets of PET and CT were analyzed with PMOD software (version 3.4). […]

T1 sequence (P15328 25-257): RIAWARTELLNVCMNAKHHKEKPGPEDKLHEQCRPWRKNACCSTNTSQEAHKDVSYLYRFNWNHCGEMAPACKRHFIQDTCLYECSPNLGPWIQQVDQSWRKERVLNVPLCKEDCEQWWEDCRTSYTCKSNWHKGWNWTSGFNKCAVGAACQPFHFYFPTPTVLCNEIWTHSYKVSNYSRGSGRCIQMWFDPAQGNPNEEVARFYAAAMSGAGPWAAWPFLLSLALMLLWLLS

In the case of “16-(4-(((2-amino-4-oxo-3,4-dihydropteridin-6-yl)methyl)amino)benzamido)-1-(4-(2-(2-(2-[^18 F]fluoroethoxy)ethoxy)ethoxy)-1H-1,2,3-triazol-1-yl)-13-oxo-3,6,9-trioxa-12-azaheptadecan-17-oic acid [[^18 F]12]”, the pKi at folate receptor is 8.80. In addition, in series [1], the “stability in fetal calf serum (radio-HPLC)” value is reported as “No degradation or defluorination”. Besides, the “tumor visualization in μPET” value in the series on KB tumor-bearing mice is on record as “facilitated visualization of FR-positive tumors on the maximum intensity projection”.
